Patent US9693556B2, “Herbicidal pyridazinone derivatives” (SYNGENTA LIMITED, priority 2011, dated 2017)

Key:
Type in all cases: in vivo
[1] = test system: Amaranthus retoflexus (AMARE); assay: Pre-emergence herbicidal glasshouse test on Amaranthus retoflexus; details: pre-emergence; 1000 g/h; evaluated after 13 days
Method in brief: (§1)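 Plants sprayed 1 day (pre-emergence) or 8 days (post-emergence) after sowing with compound at 1000 g/h in acetone/water 50:50 with 0.5% Tween 20; glasshouse 24/16° C, 14 h light, 65% humidity. Damage assessed after 13 days, scored 1–5 (5 = 80-100%, 1 = 0-19%).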

[2] = test system: Ipomoea hederacea (IPOHE); assay: Pre-emergence herbicidal glasshouse test on Ipomoea hederacea; details: pre-emergence; 1000 g/h; evaluated after 13 days
Method in brief: as §1

[3] = test system: Alopecurus myosuroides (ALOMY); assay: Pre-emergence herbicidal glasshouse test on Alopecurus myosuroides; details: pre-emergence; 1000 g/h; evaluated after 13 days
Method in brief: as §1

[4] = test system: Echinochloa crus-galli (ECHCG); assay: Post-emergence herbicidal glasshouse test on Echinochloa crus-galli; details: post-emergence; 1000 g/h; evaluated after 13 days
Method in brief: as §1

[5] = test system: Solanum nigrum (SOLNI); assay: Pre-emergence herbicidal glasshouse test on Solanum nigrum; details: pre-emergence; 1000 g/h; evaluated after 13 days
Method in brief: as §1

[6] = test system: Echinochloa crus-galli (ECHCG); assay: Pre-emergence herbicidal glasshouse test on Echinochloa crus-galli; details: pre-emergence; 1000 g/h; evaluated after 13 days
Method in brief: as §1

[7] = test system: Setaria faberi (SETFA); assay: Pre-emergence herbicidal glasshouse test on Setaria faberi; details: pre-emergence; 1000 g/h; evaluated after 13 days
Method in brief: as §1

[8] = test system: Setaria faberi (SETFA); assay: Post-emergence herbicidal glasshouse test on Setaria faberi; details: post-emergence; 1000 g/h; evaluated after 13 days
Method in brief: as §1

[9] = test system: Ipomoea hederacea (IPOHE); assay: Post-emergence herbicidal glasshouse test on Ipomoea hederacea; details: post-emergence; 1000 g/h; evaluated after 13 days
Method in brief: as §1

[10] = test system: Amaranthus retoflexus (AMARE); assay: Post-emergence herbicidal glasshouse test on Amaranthus retoflexus; details: post-emergence; 1000 g/h; evaluated after 13 days
Method in brief: as §1

[11] = test system: Solanum nigrum (SOLNI); assay: Post-emergence herbicidal glasshouse test on Solanum nigrum; details: post-emergence; 1000 g/h; evaluated after 13 days
Method in brief: as §1

[12] = test system: Alopecurus myosuroides (ALOMY); assay: Post-emergence herbicidal glasshouse test on Alopecurus myosuroides; details: post-emergence; 1000 g/h; evaluated after 13 days
Method in brief: as §1

| SMILES | PRE Application AMARE herbicidal damage (five point scale) [1] | PRE Application IPOHE herbicidal damage (five point scale) [2] | PRE Application ALOMY herbicidal damage (five point scale) [3] | POST Application ECHCG herbicidal damage (five point scale) [4] | PRE Application SOLNI herbicidal damage (five point scale) [5] | PRE Application ECHCG herbicidal damage (five point scale) [6] | PRE Application SETFA herbicidal damage (five point scale) [7] | POST Application SETFA herbicidal damage (five point scale) [8] | POST Application IPOHE herbicidal damage (five point scale) [9] | POST Application AMARE herbicidal damage (five point scale) [10] | POST Application SOLNI herbicidal damage (five point scale) [11] | POST Application ALOMY herbicidal damage (five point scale) [12] |
| --- | --- | --- | --- | --- | --- | --- | --- | --- | --- | --- | --- | --- |
| CC(C)n1ncc(-c2c(Cl)cccc2Cl)c(O)c1=O [Compound 1.016] | 1 (1=0-19% damage) | 1 (1=0-19% damage) | 1 (1=0-19% damage) | 2 (2=20-39% damage) | 1 (1=0-19% damage) | 1 (1=0-19% damage) | 1 (1=0-19% damage) | 3 (3=40-59% damage) | 2 (2=20-39% damage) | 5 (5=80-100% damage) | 3 (3=40-59% damage) | 2 (2=20-39% damage) |
| Cn1ncc(-n2ccc(C(F)(F)F)c(-c3cccc(Cl)c3)c2=O)c(O)c1=O [Compound 1.037] | 5 (5=80-100% damage) | 1 (1=0-19% damage) | 4 (4=60-79% damage) | 4 (4=60-79% damage) | 5 (5=80-100% damage) | 5 (5=80-100% damage) | 4 (4=60-79% damage) | 4 (4=60-79% damage) | 4 (4=60-79% damage) | 5 (5=80-100% damage) | 5 (5=80-100% damage) | 4 (4=60-79% damage) |
| C#Cn1ncc(-c2ccc(C(F)(F)F)cc2S(C)(=O)=O)c(O)c1=O [Compound 2.010] | 5 (5=80-100% damage) | 5 (5=80-100% damage) | 5 (5=80-100% damage) | 5 (5=80-100% damage) | 5 (5=80-100% damage) | 5 (5=80-100% damage) | 5 (5=80-100% damage) | 5 (5=80-100% damage) | 5 (5=80-100% damage) | 5 (5=80-100% damage) | 5 (5=80-100% damage) | 5 (5=80-100% damage) |
| Cc1c(-c2c(C#N)nn(C)c(=O)c2O)ccc(S(C)(=O)=O)c1C1=NOCC1 [Compound 2.025] | 5 (5=80-100% damage) | 5 (5=80-100% damage) | 1 (1=0-19% damage) | 4 (4=60-79% damage) | 5 (5=80-100% damage) | 1 (1=0-19% damage) | 1 (1=0-19% damage) | 1 (1=0-19% damage) | 4 (4=60-79% damage) | 5 (5=80-100% damage) | 5 (5=80-100% damage) | 2 (2=20-39% damage) |
